Columns and labels:
[1] = test system: 4T1 cells; assay: Cell growth study (SRB assay), 4T1; format: cell-based; settings: 0.2% serum medium, four days
Protocol: Either 4T1 cells or MCF10A cells were seeded in 96-well plate at 5×10^3 cells per well. […] After incubation for four days, cell viability was determined by SRB assay.

[2] = biological target: AKT1 (Homo sapiens (Human), UniProt P31749); assay: Kinase selectivity profiling; format: biochemical
Protocol: (§1) Kinase assays were performed in 96-well FlashPlates™ from Perkin Elmer in a […]. […] The reaction cocktail contained 70 mM HEPES-NaOH, pH 7.5, 3 mM MnCl2, 3 μM Na3VO4, 1.2 mM DTT, 1 μM [γ-^33P]-ATP (approximately 6×10^5 cpm per well), protein kinase (variable amounts), and substrate (variable amounts). The reaction cocktails were incubated at 30° C. for 60 min. The reaction was stopped with 50 μL of 2% (v/v) H3PO4, and plates were aspirated and washed two times with 200 μL 0.9% (w/v) NaCl. ALL assays were performed with a BeckmanCoulter Biomek 2000/SL robotic system. Incorporation of ^33Pi (counting of “cpm”) was determined with a microplate scintillation counter.

[3] = biological target: ALK2 (Homo sapiens (Human), UniProt Q04771); assay: Kinase selectivity profiling; format: biochemical
Chain of ALK2 (Q04771 21-509, species assumed): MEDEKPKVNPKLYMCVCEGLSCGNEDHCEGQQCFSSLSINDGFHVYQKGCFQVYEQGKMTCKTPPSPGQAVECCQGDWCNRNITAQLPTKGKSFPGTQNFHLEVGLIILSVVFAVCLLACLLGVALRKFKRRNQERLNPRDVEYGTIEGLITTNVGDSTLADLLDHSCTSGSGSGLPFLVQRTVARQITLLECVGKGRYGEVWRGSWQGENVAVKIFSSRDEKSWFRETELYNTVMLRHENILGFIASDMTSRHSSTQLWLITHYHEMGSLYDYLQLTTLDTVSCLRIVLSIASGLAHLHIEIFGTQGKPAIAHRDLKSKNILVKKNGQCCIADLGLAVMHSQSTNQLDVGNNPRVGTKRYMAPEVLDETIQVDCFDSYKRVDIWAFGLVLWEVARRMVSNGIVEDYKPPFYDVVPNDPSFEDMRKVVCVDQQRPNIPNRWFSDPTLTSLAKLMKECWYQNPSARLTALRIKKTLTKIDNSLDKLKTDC
Protocol: as §1

[4] = biological target: MST1 (Homo sapiens (Human), UniProt Q13043); assay: Kinase selectivity profiling; format: biochemical
Chain of MST1 (Q13043 whole entry): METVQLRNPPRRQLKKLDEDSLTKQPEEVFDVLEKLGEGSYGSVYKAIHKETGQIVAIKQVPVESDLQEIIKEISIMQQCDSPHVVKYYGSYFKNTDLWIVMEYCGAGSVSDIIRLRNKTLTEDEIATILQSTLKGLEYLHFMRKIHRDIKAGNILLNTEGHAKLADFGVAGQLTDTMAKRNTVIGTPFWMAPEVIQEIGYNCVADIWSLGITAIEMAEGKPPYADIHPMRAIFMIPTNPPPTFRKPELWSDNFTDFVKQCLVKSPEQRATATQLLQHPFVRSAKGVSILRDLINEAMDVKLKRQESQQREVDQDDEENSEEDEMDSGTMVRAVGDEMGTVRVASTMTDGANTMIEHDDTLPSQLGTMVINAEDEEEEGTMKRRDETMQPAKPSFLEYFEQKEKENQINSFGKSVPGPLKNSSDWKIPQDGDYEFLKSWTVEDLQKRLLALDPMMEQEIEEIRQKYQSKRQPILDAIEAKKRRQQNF
Protocol: as §1

[5] = biological target: MEK1 wt (Homo sapiens (Human), UniProt Q02750); assay: Kinase selectivity profiling; format: biochemical
Protocol: as §1

[6] = biological target: ALK1 (Homo sapiens (Human), UniProt P37023); assay: Kinase selectivity profiling; format: biochemical
Protocol: as §1

[7] = biological target: CDK1/CycA (Homo sapiens (Human), UniProt P06493); assay: Kinase selectivity profiling; format: biochemical
Chain of CDK1/CycA (P06493 whole entry, species assumed): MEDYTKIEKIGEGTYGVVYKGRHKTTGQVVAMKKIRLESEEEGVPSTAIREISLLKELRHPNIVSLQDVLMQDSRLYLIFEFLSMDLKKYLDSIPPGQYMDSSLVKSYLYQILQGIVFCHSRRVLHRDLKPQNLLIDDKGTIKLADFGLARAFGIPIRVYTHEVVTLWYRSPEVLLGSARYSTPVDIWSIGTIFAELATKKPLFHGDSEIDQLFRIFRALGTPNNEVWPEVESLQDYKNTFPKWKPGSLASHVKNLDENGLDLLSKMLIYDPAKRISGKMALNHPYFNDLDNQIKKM
Chain of CDK1/CycA (P20248 whole entry partner, species assumed): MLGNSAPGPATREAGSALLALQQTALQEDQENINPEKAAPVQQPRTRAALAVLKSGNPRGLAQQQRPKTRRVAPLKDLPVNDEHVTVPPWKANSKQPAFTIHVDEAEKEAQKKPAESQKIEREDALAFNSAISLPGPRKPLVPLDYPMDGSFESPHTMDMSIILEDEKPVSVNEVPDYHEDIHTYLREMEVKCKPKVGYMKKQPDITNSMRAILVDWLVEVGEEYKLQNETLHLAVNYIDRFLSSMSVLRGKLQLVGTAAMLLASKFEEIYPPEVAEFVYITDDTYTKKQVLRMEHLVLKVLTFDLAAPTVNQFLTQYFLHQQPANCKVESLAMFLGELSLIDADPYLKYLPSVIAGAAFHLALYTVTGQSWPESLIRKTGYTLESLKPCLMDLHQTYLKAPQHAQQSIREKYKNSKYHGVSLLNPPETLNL
Protocol: as §1

[8] = biological target: PDGFRβ (Homo sapiens (Human), UniProt P09619); assay: Kinase selectivity profiling; format: biochemical
Protocol: as §1

[9] = biological target: PAK1 (Homo sapiens (Human), UniProt Q13153); assay: Kinase selectivity profiling; format: biochemical
Chain of PAK1 (Q13153 whole entry): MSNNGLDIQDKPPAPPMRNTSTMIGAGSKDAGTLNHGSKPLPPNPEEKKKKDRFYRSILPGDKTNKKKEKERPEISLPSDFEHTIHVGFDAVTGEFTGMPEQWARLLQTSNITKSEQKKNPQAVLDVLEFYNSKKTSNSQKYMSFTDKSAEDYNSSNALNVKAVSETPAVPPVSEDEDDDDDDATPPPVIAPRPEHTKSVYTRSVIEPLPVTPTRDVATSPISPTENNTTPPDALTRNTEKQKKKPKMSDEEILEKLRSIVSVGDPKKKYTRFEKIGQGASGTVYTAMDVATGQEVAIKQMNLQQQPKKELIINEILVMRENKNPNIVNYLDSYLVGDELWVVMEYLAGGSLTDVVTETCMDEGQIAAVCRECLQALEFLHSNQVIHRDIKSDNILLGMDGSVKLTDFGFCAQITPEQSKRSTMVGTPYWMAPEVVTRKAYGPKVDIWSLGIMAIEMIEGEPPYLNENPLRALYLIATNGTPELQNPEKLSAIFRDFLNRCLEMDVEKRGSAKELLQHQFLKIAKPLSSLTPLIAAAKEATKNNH
Protocol: as §1

[10] = biological target: STK23 (Homo sapiens (Human), UniProt Q9UPE1); assay: Kinase selectivity profiling; format: biochemical
Chain of STK23 (Q9UPE1 whole entry, species assumed): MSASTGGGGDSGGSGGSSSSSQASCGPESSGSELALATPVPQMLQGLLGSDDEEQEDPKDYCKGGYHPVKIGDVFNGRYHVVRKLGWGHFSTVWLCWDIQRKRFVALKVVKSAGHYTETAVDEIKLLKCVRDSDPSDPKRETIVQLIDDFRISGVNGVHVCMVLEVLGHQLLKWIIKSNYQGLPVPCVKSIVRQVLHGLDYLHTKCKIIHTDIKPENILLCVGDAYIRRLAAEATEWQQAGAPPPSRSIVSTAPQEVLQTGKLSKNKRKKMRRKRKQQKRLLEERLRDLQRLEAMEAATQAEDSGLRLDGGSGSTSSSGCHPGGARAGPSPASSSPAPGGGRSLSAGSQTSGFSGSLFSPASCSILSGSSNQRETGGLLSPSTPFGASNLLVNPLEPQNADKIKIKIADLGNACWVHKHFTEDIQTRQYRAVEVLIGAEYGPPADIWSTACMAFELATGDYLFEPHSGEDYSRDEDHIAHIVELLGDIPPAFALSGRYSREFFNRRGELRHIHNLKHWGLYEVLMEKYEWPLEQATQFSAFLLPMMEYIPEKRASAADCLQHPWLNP
Protocol: as §1

[11] = biological target: MET wt (Homo sapiens (Human), UniProt P08581); assay: Kinase selectivity profiling; format: biochemical
Chain of MET wt (P08581 25-1390): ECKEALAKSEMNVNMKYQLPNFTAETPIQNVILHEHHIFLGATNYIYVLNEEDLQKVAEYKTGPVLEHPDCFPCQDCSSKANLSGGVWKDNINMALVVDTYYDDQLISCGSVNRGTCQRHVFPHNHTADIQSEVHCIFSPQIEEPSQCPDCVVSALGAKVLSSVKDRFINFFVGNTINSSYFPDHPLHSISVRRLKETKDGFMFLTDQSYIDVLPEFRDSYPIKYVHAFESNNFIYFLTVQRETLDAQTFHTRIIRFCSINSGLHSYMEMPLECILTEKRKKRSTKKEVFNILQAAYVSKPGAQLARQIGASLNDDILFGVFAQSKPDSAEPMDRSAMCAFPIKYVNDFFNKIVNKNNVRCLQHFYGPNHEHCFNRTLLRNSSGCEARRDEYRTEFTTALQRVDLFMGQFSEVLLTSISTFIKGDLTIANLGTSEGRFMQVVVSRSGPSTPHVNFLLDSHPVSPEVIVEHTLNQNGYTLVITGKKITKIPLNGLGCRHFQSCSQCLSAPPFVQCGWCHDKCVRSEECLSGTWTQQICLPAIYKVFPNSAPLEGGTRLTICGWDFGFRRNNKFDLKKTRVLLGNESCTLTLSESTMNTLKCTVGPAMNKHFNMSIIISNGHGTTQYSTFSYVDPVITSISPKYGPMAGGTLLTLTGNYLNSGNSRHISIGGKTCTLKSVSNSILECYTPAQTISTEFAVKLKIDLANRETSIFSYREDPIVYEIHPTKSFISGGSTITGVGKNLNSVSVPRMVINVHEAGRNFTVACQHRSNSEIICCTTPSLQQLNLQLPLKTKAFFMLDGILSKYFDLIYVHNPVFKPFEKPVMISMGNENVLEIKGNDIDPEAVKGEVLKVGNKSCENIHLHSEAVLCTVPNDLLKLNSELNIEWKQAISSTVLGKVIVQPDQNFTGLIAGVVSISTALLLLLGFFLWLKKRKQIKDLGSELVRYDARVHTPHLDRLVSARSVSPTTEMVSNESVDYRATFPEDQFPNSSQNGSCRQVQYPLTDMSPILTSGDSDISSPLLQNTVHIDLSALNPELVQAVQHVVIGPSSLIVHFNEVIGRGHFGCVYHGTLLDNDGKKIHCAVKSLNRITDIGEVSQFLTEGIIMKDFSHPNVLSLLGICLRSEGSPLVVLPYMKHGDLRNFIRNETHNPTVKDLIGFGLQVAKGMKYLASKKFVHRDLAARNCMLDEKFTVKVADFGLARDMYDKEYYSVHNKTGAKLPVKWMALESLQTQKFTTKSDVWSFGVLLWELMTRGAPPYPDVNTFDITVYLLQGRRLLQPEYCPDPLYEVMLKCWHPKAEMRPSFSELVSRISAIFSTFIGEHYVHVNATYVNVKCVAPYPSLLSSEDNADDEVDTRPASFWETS
Protocol: as §1

[12] = biological target: ERK1 (Homo sapiens (Human), UniProt P27361); assay: Kinase selectivity profiling; format: biochemical
Protocol: as §1

[13] = biological target: DAPK1 (Homo sapiens (Human), UniProt P53355); assay: Kinase selectivity profiling; format: biochemical
Protocol: as §1

[14] = biological target: EGF-R wt (Homo sapiens (Human), UniProt P00533); assay: Kinase selectivity profiling; format: biochemical
Protocol: as §1

[15] = biological target: GSK3α (Homo sapiens (Human), UniProt P49840); assay: Kinase selectivity profiling; format: biochemical
Protocol: as §1

[16] = biological target: ROCK1 (Homo sapiens (Human), UniProt Q13464); assay: Kinase selectivity profiling; format: biochemical
Protocol: as §1

[17] = biological target: VEGF-R1 (Homo sapiens (Human), UniProt P17948); assay: Kinase selectivity profiling; format: biochemical
Protocol: as §1

[18] = biological target: PKA (Homo sapiens (Human), UniProt P17612); assay: Kinase selectivity profiling; format: biochemical
Protocol: as §1

[19] = biological target: ALK3 (Homo sapiens (Human), UniProt P36894); assay: Kinase selectivity profiling; format: biochemical
Protocol: as §1

[20] = biological target: VEGF-R3 (Homo sapiens (Human), UniProt P35916); assay: Kinase selectivity profiling; format: biochemical
Protocol: as §1

[21] = biological target: PDGFRα wt (Homo sapiens (Human), UniProt P16234); assay: Kinase selectivity profiling; format: biochemical
Protocol: as §1

[22] = biological target: RPS6KA1 (Homo sapiens (Human), UniProt Q15418); assay: Kinase selectivity profiling; format: biochemical
Protocol: as §1

[23] = biological target: PKCα (Homo sapiens (Human), UniProt P17252); assay: Kinase selectivity profiling; format: biochemical
Protocol: as §1

[24] = biological target: CHK1 (Homo sapiens (Human), UniProt O14757); assay: Kinase selectivity profiling; format: biochemical
Protocol: as §1

[25] = read-out: % inhibition at 1 μM, 1 μM
[26] = read-out: % inhibition at 10 μM, 10 μM

## Cc1cccc(-c2[nH]c(CNc3ccccc3F)nc2-c2ccc3ncnn3c2)n1 [Example 2, N-((4-([1,2,4]triazolo[1,5-a]pyridin-6-yl)-5-(6-methylpyridin-2-yl)-1H-imidazol-2-yl)methyl)-2-fluoroaniline]
[1]
  4T1 cell growth: no effect
[2]; [25]
  inhibition at 1 µM: 0%
[2]; [26]
  inhibition at 10 µM: 3%
[3]; [25]
  inhibition at 1 µM: 17%
[3]; [26]
  inhibition at 10 µM: 71%
[4]; [25]
  inhibition at 1 µM: -7%
[4]; [26]
  inhibition at 10 µM: 3%
[5]; [25]
  inhibition at 1 µM: 14%
[5]; [26]
  inhibition at 10 µM: 47%
[6]; [25]
  inhibition at 1 µM: 20%
[6]; [26]
  inhibition at 10 µM: 66%
[7]; [25]
  inhibition at 1 µM: 5%
[7]; [26]
  inhibition at 10 µM: 2%
[8]; [25]
  inhibition at 1 µM: 47%
[8]; [26]
  inhibition at 10 µM: 87%
[9]; [25]
  inhibition at 1 µM: -7%
[9]; [26]
  inhibition at 10 µM: -3%
[10]; [25]
  inhibition at 1 µM: -4%
[10]; [26]
  inhibition at 10 µM: -1%
[11]; [25]
  inhibition at 1 µM: -5%
[11]; [26]
  inhibition at 10 µM: 12%
[12]; [25]
  inhibition at 1 µM: 17%
[12]; [26]
  inhibition at 10 µM: 66%
[13]; [25]
  inhibition at 1 µM: 5%
[13]; [26]
  inhibition at 10 µM: 11%
[14]; [25]
  inhibition at 1 µM: -8%
[14]; [26]
  inhibition at 10 µM: 43%
[15]; [25]
  inhibition at 1 µM: 10%
[15]; [26]
  inhibition at 10 µM: 15%
[16]; [25]
  inhibition at 1 µM: 3%
[16]; [26]
  inhibition at 10 µM: 9%
[17]
  IC50: 0.391 µM
[18]; [25]
  inhibition at 1 µM: -7%
[18]; [26]
  inhibition at 10 µM: 18%
[19]; [25]
  inhibition at 1 µM: -6%
[19]; [26]
  inhibition at 10 µM: 27%
[20]
  IC50: 0.257 µM
[21]; [25]
  inhibition at 1 µM: 53%
[21]; [26]
  inhibition at 10 µM: 91%
[22]; [25]
  inhibition at 1 µM: 6%
[22]; [26]
  inhibition at 10 µM: 14%
[23]; [25]
  inhibition at 1 µM: -9%
[23]; [26]
  inhibition at 10 µM: 4%
[24]; [25]
  inhibition at 1 µM: -2%
[24]; [26]
  inhibition at 10 µM: 5%

From patent USRE47141E1, “Methods of treating fibrosis, cancer and vascular injuries” (EWHA University—Industry Collaboration Foundation, priority 2010, dated 2018)
